Test results published in patent publication US11331375B2, “Compositions and methods for regulating leukocyte adhesion” (University of Virginia Patent Foundation, priority 2015, dated 2022).

Columns and labels:
VCAM1 = VCAM1 expression in isolated mesenteric venules; assay type: cell-based, mouse; conditions: EC Panx1 KO venules, TNFα 50 ng/mL, exogenous ATP
Protocol: Male VECadER^T2+/Panx1^fl/fl mice (Tamoxifen or Peanut oil injected) were euthanized by CO2 asphyxiation and subsequent cervical dislocation. Prior to tissue harvesting, fixation was performed by perfusing room temperature 4% paraformaldehyde (PFA) made in PBS through the heart. The mesentery was immediately excised and 2nd order venules were dissected free of surrounding fat and connective tissue and place in 4% PFA for 30 minutes before transfer to 70% ethanol for paraffin embedding. Paraffin sections (4-5 μm in thickness) were de-paraffinized and processed for immunocytochemistry as previously described^10. […]
Following stimulation with TNFα (in vitro: 10 ng/mL; ex vivo: 50 ng/mL), confluent endothelial cell monolayers or isolated mesenteric venules were homogenized in ice cold Triton extraction buffer (50 mM Tris-HCL, 150 mM NaCl , 5 mM EDTA, 1% deoxycholate, 1% NP-40 and 1% Triton-X100 in phosphate buffered saline and pH adjusted to 7.4) containing protease and phosphatase inhibitors. […] Protein concentration was quantified using the BCA method. […] Membranes were then washed and incubated with LiCOR secondary antibodies (1:10,000) and visualized and quantitated using LiCOR Odyssey. […] Data are expressed as mean±SEM (n=3 independent experiments).

HUVEC = assay: In vitro ATP release assay (luciferin:luciferase), HUVEC; assay type: cell-based, human; conditions: HUVEC
Protocol: (§1) In vitro Human arterial and venous ECs were seeded in 24-well plates pre-coated with 0.2% gelatin and grown to confluency. On the day of experiment, the media was removed from each well and cells were carefully washed twice with warm serum free basal EC medium supplemented with 1% BSA. Cells were then incubated in 300 μL of fresh basal EC medium supplemented with 1% BSA for 30 minutes at 37° C. to allow degradation of extracellular ATP released due to mechanical stimulation during washes. Endogenous ecto-nucleotidases were inhibited by incubating EC monolayers with 300 μM ARL 67156 (Tocris) for 30 minutes at 37° C. Cells were then stimulated with recombinant human TNFα (R&D Systems). For dose response experiments, ECs were incubated with 0.1, 1, 5, 10, 50, or 100 ng/mL recombinant TNFα for 30 minutes at 37° C. For time-course experiments, ECs were stimulated with 10 ng/mL recombinant TNFα for different time points up to 1 hour. In experiments where pharmacological inhibitors were employed, ECs were incubated with antagonists in parallel with ARL 67156 for 30 minutes. To inhibit TNFR1, ECs were incubated with the peptide antagonist of the receptor WP9QY (10 μM; Anaspec). […] Cx hemichannels were inhibited with lanthanum (La^3+; 100 μM; Sigma) and Panx1 channels were blocked with carbenoxolone (CBX; 50 μM; Sigma) and the inhibitory peptide ^10panx1 (200 μM; Genscript). […] The role of caspase activation was assessed by inhibition with the pan-caspase blocker Q-VD-OPh (100 μM; Sigma). Following stimulation with TNFα or vehicle, 150 μL of the cell supernatant was collected and immediately placed into pre-chilled 1.5 mL Eppendorf tubes on ice. All samples were centrifuged at 10,000×g for 5 minutes and 50 μL of each sample was transferred to a white, opaque 96-well plate. Using a FluoStar Omega luminometer, 50 μL of luciferin:luciferase reagent (ATP bioluminescence assay kit HSII; Roche) was injected into each well and luminescence was recorded following a 5s orbital mix. ATP concentration in each sample was calculated from a standard curve for all experiments. Data are presented as a % change in ATP release from baseline (i.e. unstimulated cells) and expressed as mean±SEM (n=5 independent experiments with triplicate measurements).

Panx1 = assay: Cell surface biotinylation after BFA, Panx1; assay type: cell-based, human; conditions: HUVEC and HSaVEC; BFA 5 μg/mL, 5 hour
Protocol: (§2) Cell surface biotinylation was performed as described previously^15. To deplete Cx43 hemichannels from the EC plasma membrane, venous and arterial ECs were grown to confluency in 6-well plates (Western blotting) or 24-well plates (ATP release) and treated with the vesicular exocytosis inhibitor brefeldin A (BFA; 5 μg/mL) for 5 hours at 37° C. Cells were washed once with cold 1× PBS and incubated with cold DMEM (without FBS) and 50 μM CBX at 4° C. for 30 minutes. CBX was added to prevent biotin from passing through Panx1 channels, which may label intracellular proteins. Cells were washed with PBS and incubated at 4° C. for 1 hour in cold PBS (1.5 mL/dish) containing EZ-link-sulfo-NHS-LC-biotin (1 mg/mL) and CBX (50 μM). The cells were washed again with PBS and lysed in PBS-T (PBS+0.5-1% Triton-X 100) containing protease inhibitors. Total protein was quantified using the BCA assay and equal amounts of protein were incubated with Streptavidin-agarose beads for 2 hours at 4° C. to pull down biotinylated (cell surface) proteins. Beads were then washed 5 times with 1× PBS-T, pelleted by centrifugation and proteins eluted by incubation with 5x sample buffer. Eluted proteins were subjected to SDS-PAGE and Western blotting for detection of Cx43 and Panx1.

HSaVEC = assay: In vitro ATP release assay (luciferin:luciferase), HSaVEC; assay type: cell-based, human; conditions: HSaVEC
Protocol: as §1

Cx43 hemichannels = assay: Cell surface biotinylation after BFA, Cx43; assay type: cell-based, human; conditions: HUVEC and HSaVEC; BFA 5 μg/mL, 5 hour
Protocol: as §2

[1] = BFA 5 μg/mL for 5 hours, TNFα 10 ng/mL 30 min

| SMILES | VCAM1 upregulation in Panx1 KO mice venules (VCAM1) | TNFα-induced ATP release after Cx hemichannel depletion (HUVEC; [1]) | effect of inhibitor on TNFα-induced ATP release (HUVEC; antagonist 30 min, WP9QY 10 μM, La3+ 100 μM, BFA 5 μg/mL, RuR 20 μM, PP2/PP3 10 μM, Q-VD-OPh 100 μM) | expression of Panx1 at the EC surface (Panx1) | TNFα-induced ATP release after Cx hemichannel depletion (HSaVEC; [1]) | effect of inhibitor on TNFα-induced ATP release (HSaVEC; antagonist 30 min, WP9QY 10 μM, BFA 5 μg/mL, RuR 20 μM, PP2/PP3 10 μM) | expression of Cx43 at the EC surface (Cx43 hemichannels) |
| --- | --- | --- | --- | --- | --- | --- | --- |
| Nc1ncnc2c1ncn2[C@@H]1O[C@H](COP(=O)(O)OP(=O)(O)OP(=O)(O)O)[C@@H](O)[C@H]1O [ATP, adenosine 5′ triphosphate] | rescued |  |  |  |  |  |  |
| C[C@H]1CCC/C=C/[C@@H]2C[C@H](O)C[C@H]2[C@H](O)/C=C/C(=O)O1 [BFA, brefeldin A] |  | unaffected | ruled out the involvement | without significantly altering | unaffected | ruled out the involvement | decreased |
